The target of data set [1] is T1, Alpha-2C adrenergic receptor (Homo sapiens, UniProt P18825).
T1 sequence (P18825 whole entry): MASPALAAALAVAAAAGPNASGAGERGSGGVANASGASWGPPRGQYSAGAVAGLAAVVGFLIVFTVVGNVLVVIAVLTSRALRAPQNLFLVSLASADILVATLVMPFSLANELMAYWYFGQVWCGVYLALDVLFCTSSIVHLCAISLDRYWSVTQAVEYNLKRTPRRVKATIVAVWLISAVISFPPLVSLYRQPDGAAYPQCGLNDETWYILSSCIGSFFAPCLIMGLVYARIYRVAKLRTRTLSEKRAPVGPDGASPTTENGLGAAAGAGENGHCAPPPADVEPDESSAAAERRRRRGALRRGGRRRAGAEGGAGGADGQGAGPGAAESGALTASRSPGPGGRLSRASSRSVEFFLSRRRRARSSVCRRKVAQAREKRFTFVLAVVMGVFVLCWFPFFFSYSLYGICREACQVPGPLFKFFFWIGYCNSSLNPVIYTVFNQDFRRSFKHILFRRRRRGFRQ
The data set is described as follows: DRUGMATRIX: Adrenergic Alpha-2C radioligand binding (ligand: [3H] MK-912). The data set is classed as cell membranes, Sf9, Membrane.

For data set [2], the target named is Prostaglandin G/H synthase 1 (Homo sapiens, UniProt P23219). The data set can be described thus: biochemical. The data set is classed as tissue-based, Platelet. Conditions: platelet.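 Also: inhibition of COX-1 enzyme activity, with arachidonic acid supplied as substrate; in other assays of this panel Not Active means under 50% inhibition at 10 µM.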
Sequence of Prostaglandin G/H synthase 1 (P23219 whole entry): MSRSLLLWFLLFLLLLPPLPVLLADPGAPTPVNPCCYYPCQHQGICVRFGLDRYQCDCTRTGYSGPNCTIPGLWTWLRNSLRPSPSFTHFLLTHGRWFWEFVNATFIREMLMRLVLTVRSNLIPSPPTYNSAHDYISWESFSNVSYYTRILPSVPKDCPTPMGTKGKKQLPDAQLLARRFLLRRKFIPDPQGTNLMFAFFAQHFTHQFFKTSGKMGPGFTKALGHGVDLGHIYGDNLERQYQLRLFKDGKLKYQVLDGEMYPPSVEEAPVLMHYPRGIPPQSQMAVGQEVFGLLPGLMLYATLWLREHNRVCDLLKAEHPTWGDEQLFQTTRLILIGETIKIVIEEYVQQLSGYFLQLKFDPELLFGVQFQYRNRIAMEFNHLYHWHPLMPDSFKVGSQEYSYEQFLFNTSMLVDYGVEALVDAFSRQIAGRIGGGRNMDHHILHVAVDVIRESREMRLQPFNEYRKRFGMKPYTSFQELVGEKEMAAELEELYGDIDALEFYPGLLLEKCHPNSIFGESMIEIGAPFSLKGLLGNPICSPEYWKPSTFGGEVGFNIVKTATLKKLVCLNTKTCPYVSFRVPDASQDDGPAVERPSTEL
The next data set concerns the target T2, D(4) dopamine receptor (Homo sapiens, UniProt P21917).
T2 sequence (P21917 whole entry): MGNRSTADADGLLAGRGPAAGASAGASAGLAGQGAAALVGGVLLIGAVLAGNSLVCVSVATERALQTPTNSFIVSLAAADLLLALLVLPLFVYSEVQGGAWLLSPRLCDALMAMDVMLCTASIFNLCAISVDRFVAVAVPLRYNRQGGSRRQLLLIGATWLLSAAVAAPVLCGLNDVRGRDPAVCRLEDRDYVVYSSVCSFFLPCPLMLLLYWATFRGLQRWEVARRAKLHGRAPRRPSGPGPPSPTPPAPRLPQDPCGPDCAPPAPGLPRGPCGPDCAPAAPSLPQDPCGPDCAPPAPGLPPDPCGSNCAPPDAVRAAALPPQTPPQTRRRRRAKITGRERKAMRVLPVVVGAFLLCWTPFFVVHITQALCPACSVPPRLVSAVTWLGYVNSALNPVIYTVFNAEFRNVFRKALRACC
The data set can be described thus: DRUGMATRIX: Dopamine D4.2 radioligand binding (ligand: [3H] Spiperone). The data set is classed as cell membranes, Membrane. Conditions: cho-k1; Not Active = under 50% inhibition at 10 µM.

A short description of data set [3]: DRUGMATRIX: Glutamate, NMDA, Agonism radioligand binding (ligand: [3H] CGP-39653). The data set is classed as cell membranes, Rattus norvegicus, Wistar, Cerebral cortex, Membrane. As to conditions: Not Active = under 50% inhibition at 10 µM.
A short description of data set [4]: DRUGMATRIX: Phorbol Ester radioligand binding (ligand: [3H] PDBu). It counts as cell membranes, Mus musculus, ICR, Brain, Membrane. As to conditions: Not Active = under 50% inhibition at 10 µM.
In data set [5] the target is cGMP-specific 3',5'-cyclic phosphodiesterase (Homo sapiens, UniProt O76074). The data set is described as follows: DRUGMATRIX: Phosphodiesterase PDE5 enzyme inhibition (substrate: [3H]cGMP + cGMP). The data set is classed as tissue-based. As to conditions: platelet; Not Active = under 50% inhibition at 10 µM.
Data set [6] can be described thus: DRUGMATRIX: Platelet-Derived Growth Factor (PDGF) radioligand binding (ligand: [125I] PDGF). As to conditions: nih3t3; Not Active = under 50% inhibition at 10 µM. The data set is classed as cell-based.
Another data set addresses T3, Interstitial collagenase (Homo sapiens, UniProt P03956).
T3 sequence (P03956 whole entry): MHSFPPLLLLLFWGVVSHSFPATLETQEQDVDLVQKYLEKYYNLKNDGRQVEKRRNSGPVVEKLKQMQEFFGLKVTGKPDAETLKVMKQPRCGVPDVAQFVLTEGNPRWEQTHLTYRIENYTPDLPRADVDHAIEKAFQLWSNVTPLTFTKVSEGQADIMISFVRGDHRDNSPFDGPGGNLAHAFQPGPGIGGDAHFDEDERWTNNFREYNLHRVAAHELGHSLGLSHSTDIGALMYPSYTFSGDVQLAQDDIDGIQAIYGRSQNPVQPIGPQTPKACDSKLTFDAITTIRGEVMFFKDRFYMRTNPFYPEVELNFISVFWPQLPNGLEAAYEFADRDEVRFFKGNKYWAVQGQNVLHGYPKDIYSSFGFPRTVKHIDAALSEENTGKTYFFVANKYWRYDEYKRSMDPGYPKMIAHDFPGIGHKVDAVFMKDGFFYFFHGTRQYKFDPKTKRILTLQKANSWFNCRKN
The data set can be described thus: biochemical. It counts as tissue-based, Rheumatoid synovial fibroblasts.

Data set [7] addresses Mitogen-activated protein kinase 14 (Homo sapiens, UniProt Q16539). Set-up: species or system Escherichia coli.
Data set [8] can be described thus: DRUGMATRIX: Purinergic P2X radioligand binding (ligand: [3H] alpha, beta-Methylene-ATP). Conditions: Not Active = under 50% inhibition at 10 µM. The data set is classed as cell membranes, Oryctolagus cuniculus, New Zealand albino, Urinary bladder, Membrane.
Another data set has as its target Cytochrome P450 2D6 (Homo sapiens, UniProt P10635). Conditions: bti-tn-5b1-4. Also: in other assays of this panel Not Active means under 50% inhibition at 10 µM.

Among the data in ChEMBL document CHEMBL1909046, “DrugMatrix in vitro pharmacology data” are IC50 and Ki values, retold here.

Sequence of Mitogen-activated protein kinase 14 (Q16539 whole entry): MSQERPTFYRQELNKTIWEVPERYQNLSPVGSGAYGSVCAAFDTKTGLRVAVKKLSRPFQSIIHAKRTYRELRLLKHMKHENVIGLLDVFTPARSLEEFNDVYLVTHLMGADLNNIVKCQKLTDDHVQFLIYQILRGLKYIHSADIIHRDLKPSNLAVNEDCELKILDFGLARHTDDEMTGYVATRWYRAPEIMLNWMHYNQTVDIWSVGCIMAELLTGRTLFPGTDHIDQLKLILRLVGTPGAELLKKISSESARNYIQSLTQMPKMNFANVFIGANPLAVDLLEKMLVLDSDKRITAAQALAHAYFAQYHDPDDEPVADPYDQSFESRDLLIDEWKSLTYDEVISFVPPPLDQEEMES
Sequence of Cytochrome P450 2D6 (P10635 whole entry): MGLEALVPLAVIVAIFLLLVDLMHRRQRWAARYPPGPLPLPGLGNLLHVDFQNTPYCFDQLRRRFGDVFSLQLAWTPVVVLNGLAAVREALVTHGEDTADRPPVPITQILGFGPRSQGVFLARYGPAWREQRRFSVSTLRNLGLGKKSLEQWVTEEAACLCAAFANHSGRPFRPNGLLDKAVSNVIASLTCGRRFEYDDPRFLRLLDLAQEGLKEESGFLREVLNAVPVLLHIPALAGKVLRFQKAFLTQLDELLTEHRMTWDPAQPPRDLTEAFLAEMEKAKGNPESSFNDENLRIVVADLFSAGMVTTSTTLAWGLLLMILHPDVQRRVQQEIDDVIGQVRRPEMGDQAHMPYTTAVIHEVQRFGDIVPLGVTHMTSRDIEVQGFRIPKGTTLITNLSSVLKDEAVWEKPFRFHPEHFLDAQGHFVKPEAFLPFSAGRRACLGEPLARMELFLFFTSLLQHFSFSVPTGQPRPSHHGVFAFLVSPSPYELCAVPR

As usually defined, the IC50 is the point on the concentration scale where inhibition reaches its midpoint. In general, Ki refers to the dissociation constant of the complex between target and ligand, obtained from inhibition or displacement. Take `CC1=C(CC(=O)O)c2cc(F)ccc2/C1=C\c1ccc([S+](C)[O-])cc1` (centres undefined): the IC50 result (in data set [1] (sf9); in [2]; on D(4) dopamine receptor; in [3]; in data set [4]; in [5]) was “Not Active” throughout. Further, the 50% inhibitory concentration (IC50) entry (in [6]; against Interstitial collagenase; in [7]; in data set [8]; against Cytochrome P450 2D6) was “Not Active” throughout. In addition, the Ki result (in data set [3]; in data set [4]; in [6]; in [8]; on Cytochrome P450 2D6) was “Not Active” in each case.
Take `N[C@H](CSC(=S)NCc1ccccc1)C(=O)O`: the 50% inhibitory concentration (IC50) entry (in data set [1] (sf9); in data set [2]; on D(4) dopamine receptor; in [3]; in [4]; in data set [5]) was “Not Active” each time. The IC50 result (in data set [6]; at Interstitial collagenase; in [7]; in data set [8]; on Cytochrome P450 2D6) was “Not Active” in each case. The Ki entry (in data set [3]; in [4]; in data set [6]; in [8]; on Cytochrome P450 2D6) was “Not Active” each time.
`Clc1ccc2c(c1)C(N1CCNCC1)=Nc1ccccc1O2` [AMOXAPINE]: the IC50 entry (in [2]; on D(4) dopamine receptor; in [5]; at Interstitial collagenase; in [7]) was “Not Active” in each case.
With `COc1cc2c(c(OC)c1OC)-c1ccc(OC)c(=O)cc1[C@@H](NC(C)=O)CC2` [COLCHICINE], the half-maximal inhibitory concentration (IC50) entry (in data set [1] (sf9); in data set [2]; on D(4) dopamine receptor; in data set [5]; against Interstitial collagenase; in [7]) was “Not Active” in each case. The IC50 result against Cytochrome P450 2D6 is recorded as “Not Active”. Moreover, the Ki entry on Cytochrome P450 2D6 is reported as “Not Active”.
As for `CN1CCC(=C2c3ccccc3C=Cc3ccccc32)CC1` [CYPROHEPTADINE], the IC50 in data set [1] (read-out: IC50) was 1270 nM; in data set [2], “Not Active”; on D(4) dopamine receptor, “Not Active”; in data set [5] it was “Not Active”; against Interstitial collagenase it was “Not Active”; in [7], “Not Active”. Also, the IC50 entry against Cytochrome P450 2D6 was “Not Active”. In addition, the Ki in data set [1] (read-out: Ki) was 185 nM; at Cytochrome P450 2D6 it was “Not Active”.
As for `CC/C(=C(/CC)c1ccc(O)cc1)c1ccc(O)cc1` [DIETHYLSTILBESTROL], the IC50 entry at D(4) dopamine receptor was “Not Active”; in data set [5] it was “Not Active”; at Interstitial collagenase, “Not Active”; in data set [7] (read-out: IC50) it was 32.9 µM; at Cytochrome P450 2D6, “Not Active”. Further, the Ki result at Cytochrome P450 2D6 is “Not Active”.
In the case of `CC(=O)N1CCN(c2ccc(OCC3COC(Cn4ccnc4)(c4ccc(Cl)cc4Cl)O3)cc2)CC1` (centres undefined) [KETOCONAZOLE], the 50% inhibitory concentration (IC50) entry (in data set [1] (sf9); in data set [2]; at D(4) dopamine receptor; in data set [3]; in data set [4]; in data set [5]) was “Not Active” in each case. The IC50 result (in data set [6]; against Interstitial collagenase; in data set [7]; in data set [8]) was “Not Active” throughout. For the same molecule, the Ki result in [3], in [4], in [6] and in [8] was “Not Active” each time.
Consider `C=CCN1CC[C@]23c4c5ccc(O)c4O[C@H]2C(=O)CC[C@@]3(O)[C@H]1C5` [NALOXONE], for which the IC50 entry (in [1] (sf9); in [2]; at D(4) dopamine receptor; in data set [5]; on Interstitial collagenase; in [7]) was “Not Active” in each case.
Consider `COCCOC(=O)C1=C(C)NC(C)=C(C(=O)OC(C)C)C1c1cccc([N+](=O)[O-])c1` (centres undefined) [NIMODIPINE], for which the IC50 entry (in data set [1] (sf9); in [2]; at D(4) dopamine receptor; in [3]; in data set [4]; in [5]) was “Not Active” each time. Besides, the IC50 entry (in data set [6]; against Interstitial collagenase; in data set [7]; in data set [8]) was “Not Active” in each case. Also, the Ki result in data set [3], in data set [4], in [6] and in [8] was “Not Active” each time.
With `CC(C)NCC(O)COc1cccc2ccccc12` (centres undefined) [PROPRANOLOL], the IC50 entry (in data set [1] (sf9); in data set [2]; at D(4) dopamine receptor; in data set [5]; against Interstitial collagenase; in data set [7]) was “Not Active” in each case.
Take `O=C(c1ccc(OCCN2CCCCC2)cc1)c1c(-c2ccc(O)cc2)sc2cc(O)ccc12` [RALOXIFENE]: the IC50 result (in data set [2]; at D(4) dopamine receptor; in data set [3]; in data set [4]; in data set [5]; in data set [6]) was “Not Active” each time. Further, the IC50 entry (against Interstitial collagenase; in data set [7]; in [8]; at Cytochrome P450 2D6) was “Not Active” each time. Besides, the Ki result (in data set [3]; in data set [4]; in data set [6]; in data set [8]; on Cytochrome P450 2D6) was “Not Active” throughout.
In the case of `CC(C)c1nc(CN(C)C(=O)N[C@H](C(=O)N[C@@H](Cc2ccccc2)C[C@H](O)[C@H](Cc2ccccc2)NC(=O)OCc2cncs2)C(C)C)cs1` [RITONAVIR], the IC50 entry (in [1] (sf9); in [2]; at D(4) dopamine receptor; in data set [3]; in data set [4]; in [5]) was “Not Active” each time. Besides, the IC50 result (in data set [6]; on Interstitial collagenase; in [7]; in [8]) was “Not Active” each time. The Ki result in [3], in data set [4], in [6] and in data set [8] was “Not Active” each time.
Turning to `CC(C)(C)c1ccc(C(O)CCCN2CCC(C(O)(c3ccccc3)c3ccccc3)CC2)cc1` (centres undefined) [TERFENADINE], the IC50 result (in data set [2]; on D(4) dopamine receptor; in data set [3]; in data set [4]; in data set [5]; in data set [6]) was “Not Active” in each case. The IC50 result (on Interstitial collagenase; in [7]; in [8]; on Cytochrome P450 2D6) was “Not Active” throughout. Moreover, the inhibition constant Ki result (in [3]; in [4]; in data set [6]; in data set [8]; at Cytochrome P450 2D6) was “Not Active” each time.
